{"source": "patent US11820773B2", "about": "“Tricyclic compounds” (ALIGOS THERAPEUTICS, INC., priority 2020, dated 2023)", "data": [{"test_system": "HBV", "test": "HBV-DNA antiviral assay using HepG2.117 cells (intracellular HBV DNA by qPCR)", "assay_type": "cell-based, genotype D HBV", "settings": "Hepatitis B virus, 72 h, HBV DNA inhibition, 3 days incubation, 2% DMSO", "description": "The following assay procedure describes the HBV antiviral assay, using HepG2.117 cells, which carry a stably integrated genotype D HBV genome under the control of a Tet-off promoter, and intracellular HBV DNA quantification as endpoint. Cell viability is assessed in parallel by measuring the intracellular ATP content using CellTiter-Glo 2.0 (Promega).\nOn day 0, HepG2.117 cells (which are maintained in routine cell culture with doxycycline present in the medium at a final concentration of 1 μg/mL) were seeded in 96-well plates (white with clear bottom) at a density of 2.0×10^4 cells/well (0.1 mL/well) in medium without doxycycline to induce pgRNA transcription and subsequent formation of HBV particles. The cells were incubated at 37° C. and 5% CO2.\nOn day 1, medium was removed from each well, the test articles were diluted in culture medium without doxcycyline and 100 μL was added to cell culture wells (9 concentrations, 4-fold dilution). For each plate, 6 untreated (merely DMSO) wells were included. The final concentration of DMSO in the culture medium was 2%. Each plate was prepared in duplicate (one for HBV DNA extraction, one for CellTiter-Glo 2.0 measurement). The cells were incubated at 37° C. and 5% CO2 for 3 days.\nOn day 4, cell viability was assessed using CellTiter-Glo 2.0 and cell lysates were prepared for HBV DNA extraction and subsequent quantification by qPCR.\nHBV DNA Quantification by qPCR\nMedium was removed from each well and 100 μL of 0.33% NP-40 in H2O was added to each well. Plates were sealed, incubated at 4° C. for 5 mins, vortexed extensively and centrifuged briefly. Next, 35 μL of lysate was added to 65 μL QuickExtract DNA Extraction Solution (Epicentre) in a PCR plate for each well. PCR plate was incubated at 65° C. for 6 mins, 98° C. for 2 mins and finally cooled to 4° C. HBV DNA was then quantified by qPCR with HBV-specific primers and probes as specified in Table 1 using the Bio-Rad SSOAdvanced Universal Probes Supermix on a CFX96 machine (Bio-Rad). The PCR cycle program consisted of 95° C. for 3 mins, followed by 40 cycles at 95° C. for 10 sec and 60° C. for 30 sec.\nA DNA standard was prepared by dilution of an IDT gBlock corresponding to the amplicon with concentrations ranging from 10^2 to 10^8 copies/input (i.e. per 4 μL) and used to generate a standard curve by plotting Cq values vs. HBV DNA standard concentration. The quantity of HBV DNA in each sample was determined by interpolating from the standard curve.\nCell viability was calculated as follows: % Cell viability=(luminescence value of test sample)/(average luminescence value of 2% DMSO control)×100%. HBV DNA inhibition was calculated as follows: 100−(HBV DNA copy number of test sample)/(average HBV DNA copy number of 2% DMSO control)×100%. No normalization to entecavir was required due to the excellent dynamic window of this assay. The CC50, EC50 and EC90 values were determined by dose-response curves fitted by GraphPad Prism using “log (agonist) vs. response—Variable slope”.", "units": {"EC50": "µM"}, "values": [{"compound": "C[C@H]1Cc2c(n3ncc(Cc4ccccc4)c3n(-c3ccc(-c4ncnn4C)cc3)c2=O)CN1C(=O)c1ccc(Br)c(C(F)(F)F)c1", "note": "(stereo in doubt) [Compound 49b, rac-(11S)-5-benzyl-12-[4-bromo-3-(trifluoromethyl)benzoyl]-11-methyl-7-[4-(2-methyl-1,2,4-triazol-3-yl)phenyl]-2,3,7,12-tetrazatricyclo[7.4.0.0^2,6]trideca-1(9),3,5-trien-8-one]", "EC50": "0.05 to 0.5"}, {"compound": "CNC(=O)c1ccc(-n2c(=O)c3c(n4ncc(CC(C)C)c24)CN(C(=O)c2ccc(Br)c(C(F)(F)F)c2)[C@H](C)C3)cc1", "note": "(stereo in doubt) [Compound 50a, N-methyl-4-[rac-(11R)-12-[4-bromo-3-(trifluoromethyl)benzoyl]-5-isobutyl-11-methyl-8-oxo-2,3,7,12-tetrazatricyclo[7.4.0.0^2,6]trideca-1(9),3,5-trien-7-yl]benzamide]", "EC50": "< 0.05"}, {"compound": "CNC(=O)c1ccc(-n2c(=O)c3c(n4ncc(CC(C)C)c24)CN(C(=O)c2ccc(Br)c(C(F)(F)F)c2)[C@@H](C)C3)cc1", "note": "(stereo in doubt) [Compound 50b, N-methyl-4-[rac-(11S)-12-[4-bromo-3-(trifluoromethyl)benzoyl]-5-isobutyl-11-methyl-8-oxo-2,3,7,12-tetrazatricyclo[7.4.0.0^2,6]trideca-1(9),3,5-trien-7-yl]benzamide]", "EC50": "0.05 to 0.5"}, {"compound": "C[C@@H]1Cc2c(n3ncc(CC4CCC4)c3n(-c3ccc(-c4nncn4C)cc3)c2=O)CN1C(=O)c1ccc(Cl)c(C(F)(F)F)c1", "note": "(stereo in doubt) [Compound 51a, rac-(11R)-12-[4-chloro-3-(trifluoromethyl)benzoyl]-5-(cyclobutylmethyl)-11-methyl-7-[4-(4-methyl-1,2,4-triazol-3-yl)phenyl]-2,3,7,12-tetrazatricyclo[7.4.0.0^2,6]trideca-1(9),3,5-trien-8-one]", "EC50": "< 0.05"}, {"compound": "C[C@H]1Cc2c(n3ncc(CC4CCC4)c3n(-c3ccc(-c4nncn4C)cc3)c2=O)CN1C(=O)c1ccc(Cl)c(C(F)(F)F)c1", "note": "(stereo in doubt) [Compound 51b, rac-(11S)-12-[4-chloro-3-(trifluoromethyl)benzoyl]-5-(cyclobutylmethyl)-11-methyl-7-[4-(4-methyl-1,2,4-triazol-3-yl)phenyl]-2,3,7,12-tetrazatricyclo[7.4.0.0^2,6]trideca-1(9),3,5-trien-8-one]", "EC50": "0.5 to 5"}, {"compound": "Cc1nnc(-c2ccc(-n3c(=O)c4c(n5ncc(Cc6ccccc6)c35)CN(C(=O)c3ccc(Cl)c(C(F)(F)F)c3)[C@H](C)C4)cc2)[nH]1", "note": "(stereo in doubt) [Compound 52a, rac-(11R)-5-benzyl-12-[4-chloro-3-(trifluoromethyl)benzoyl]-11-methyl-7-[4-(5-methyl-4H-1,2,4-triazol-3-yl)phenyl]-2,3,7,12-tetrazatricyclo[7.4.0.0^2,6]trideca-1(9),3,5-trien-8-one]", "EC50": "< 0.05"}, {"compound": "Cc1nnc(-c2ccc(-n3c(=O)c4c(n5ncc(Cc6ccccc6)c35)CN(C(=O)c3ccc(Cl)c(C(F)(F)F)c3)[C@@H](C)C4)cc2)[nH]1", "note": "(stereo in doubt) [Compound 52b, rac-(11S)-5-benzyl-12-[4-chloro-3-(trifluoromethyl)benzoyl]-11-methyl-7-[4-(5-methyl-4H-1,2,4-triazol-3-yl)phenyl]-2,3,7,12-tetrazatricyclo[7.4.0.0^2,6]trideca-1(9),3,5-trien-8-one]", "EC50": "0.05 to 0.5"}, {"compound": "Cc1nnc(-c2ccc(-n3c(=O)c4c(n5ncc(Cc6ccccc6)c35)CN(C(=O)c3ccc(Br)c(Cl)c3)[C@H](C)C4)cc2)[nH]1", "note": "(stereo in doubt) [Compound 53a, rac-(11R)-5-benzyl-12-(4-bromo-3-chloro-benzoyl)-11-methyl-7-[4-(5-methyl-4H-1,2,4-triazol-3-yl)phenyl]-2,3,7,12-tetrazatricyclo[7.4.0.0^2,6]trideca-1(9),3,5-trien-8-one]", "EC50": "< 0.05"}, {"compound": "Cc1nnc(-c2ccc(-n3c(=O)c4c(n5ncc(Cc6ccccc6)c35)CN(C(=O)c3ccc(Br)c(Cl)c3)[C@@H](C)C4)cc2)[nH]1", "note": "(stereo in doubt) [Compound 53b, rac-(11S)-5-benzyl-12-(4-bromo-3-chloro-benzoyl)-11-methyl-7-[4-(5-methyl-4H-1,2,4-triazol-3-yl)phenyl]-2,37,12-tetrazatricyclo[7.4.0.0^2,6]trideca-1(9),3,5-trien-8-one]", "EC50": "0.05 to 0.5"}, {"compound": "CNC(=O)c1ccc(-n2c(=O)c3c(n4ncc(CC(C)C)c24)CN(C(=O)c2ccc(Cl)c(C(F)(F)F)c2)[C@H](C)C3)cc1", "note": "(stereo in doubt) [Compound 54a, N-methyl-4-[rac-(11R)-12-[4-chloro-3-(trifluoromethyl)benzoyl]-5-isobutyl-11-methyl-8-oxo-2,3,7,12-tetrazatricyclo[7,4.0.0^2,6]trideca-1(9),3,5-trien-7-yl]benzamide]", "EC50": "< 0.05"}, {"compound": "CNC(=O)c1ccc(-n2c(=O)c3c(n4ncc(CC(C)C)c24)CN(C(=O)c2ccc(Cl)c(C(F)(F)F)c2)[C@@H](C)C3)cc1", "note": "(stereo in doubt) [Compound 54b, N-methyl-4-[rac-(11S)-12-[4-chloro-3-(trifluoromethyl)benzoyl]-5-isobutyl-11-methyl-8-oxo-2,3,7,12-tetrazatricyclo[7.4.0.0^2,6]trideca-1(9),3,5-trien-7-yl]benzamide]", "EC50": "0.05 to 0.5"}, {"compound": "CNC(=O)c1ccc(-n2c(=O)c3c(n4ncc(CC(C)C)c24)CN(C(=O)c2ccc(Br)c(Cl)c2)[C@H](C)C3)cc1", "note": "(stereo in doubt) [Compound 55a, N-methyl-4-[rac-(11R)-12-(4-bromo-3-chloro-benzoyl)-5-isobutyl-11-methyl-8-oxo-2,3,7,12-tetrazatricyclo[7.4.0.0^2,6]trideca-1(9),3,5-trien-7-yl]benzamide]", "EC50": "< 0.05"}, {"compound": "CNC(=O)c1ccc(-n2c(=O)c3c(n4ncc(CC(C)C)c24)CN(C(=O)c2ccc(Br)c(Cl)c2)[C@@H](C)C3)cc1", "note": "(stereo in doubt) [Compound 55b, N-methyl-4-[rac-(11S)-12-(4-bromo-3-chloro-benzoyl)-5-isobutyl-11-methyl-8-oxo-2,3,7,12-tetrazatricyclo[7.4.0.0^2,6]trideca-1(9),3,5-trien-7-yl]benzamide]", "EC50": "0.05 to 0.5"}, {"compound": "CNc1n[nH]c2cc(-n3c(=O)c4c(n5ncc(CC(C)C)c35)CN(C(=O)c3ccc(Cl)c(C(F)(F)F)c3)[C@H](C)C4)ccc12", "note": "(stereo in doubt) [Compound 56a, rac-(11R)-12-[4-chloro-3-(trifluoromethyl)benzoyl]-5-isobutyl-11-methyl-7-[3-(methylamino)-1H-indazol-6-yl]-2,3,7,12-tetrazatricyclo[7.4.0.0^2,6]trideca-1(9),3,5-trien-8-one]", "EC50": "< 0.05"}, {"compound": "CNc1n[nH]c2cc(-n3c(=O)c4c(n5ncc(CC(C)C)c35)CN(C(=O)c3ccc(Cl)c(C(F)(F)F)c3)[C@@H](C)C4)ccc12", "note": "(stereo in doubt) [Compound 56b, rac-(11S)-12-[4-chloro-3-(trifluoromethyl)benzoyl]-5-isobutyl-11-methyl-7-[3-(methylamino)-1H-indazol-6-yl]-2,3,7,12-tetrazatricyclo[7.4.0.0^2,6]trideca-1(9),3,5-trien-8-one]", "EC50": "0.05 to 0.5"}]}]}
